Assay results reported in ChEMBL document CHEMBL1201862, “PubChem BioAssay data set” (2004).
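In this assay, cells in 96-well plates receive the compound at five concentrations for 48 hours. Endpoints are linearly interpolated between the surrounding concentrations. GI50 = concentration required for 50% inhibition of growth.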 Activity calls are given as the source filed them. Rule as the data show it: active = GI50 up to about 1.1 µM and inactive = higher.

Tests used:
Assay in all cases: inhibition of tumour cell growth, NCI panel, 48 h
[1] = tested on: T47D
[2] = tested on: M19-MEL
[3] = tested on: HOP-18
[4] = tested on: DMS-114
[5] = tested on: DLD-1
[6] = tested on: SNB-78
[7] = tested on: LXFL 529
[8] = tested on: KM-20L2
[9] = tested on: RXF 631

OCCN=C1c2ccccc2C2C(c3ccccc31)C1c3ccccc3C(=NCCO)c3ccccc3C21 (centres undefined)
GI50 [1]: 21.6 µM (inactive)

NC(=O)NNC(=O)NC12CC3CC(CC(C3)C1)C2
GI50 [2]: > 100 µM (inactive) | GI50 [3]: > 100 µM (inactive) | GI50 [4]: > 100 µM (inactive) | GI50 [5]: > 100 µM (inactive) | GI50 [6]: > 100 µM (inactive) | GI50 [7]: > 100 µM (inactive) | GI50 [8]: > 100 µM (inactive)

CCCC(=O)Nc1cc(C(=O)N2C[C@@H]3C[C@]34C2=CC(=O)c2[nH]cc(C)c24)n(COC)c1
GI50 [1]: 2.78 µM (inactive)

N#CC(C#N)=C1SC(=N\c2ccccc2)/C(=N/c2ccccc2)N1c1ccccc1
GI50 [1]: 5.38 µM (inactive)

CCOC(=O)C12CCCC1(O)N(NC(=O)c1ccccc1)C(C)=C2C(=O)OC (centres undefined)
GI50 [2]: > 100 µM (inactive) | GI50 [3]: > 100 µM (inactive) | GI50 [6]: > 100 µM (inactive) | GI50 [7]: > 100 µM (inactive) | GI50 [8]: > 100 µM (inactive)

CCOC(=O)NC(Nc1cccc(F)c1)(C(F)(F)F)C(F)(F)F
GI50 [1]: > 100 µM (inactive)

CO/C=C(/C(=O)OC)c1ccccc1COc1cccc(C(F)(F)F)c1
GI50 [1]: 15 µM (inactive)

COC(=O)C(=O)C(C(=O)C=C(C)C)C(=O)C(=O)Nc1ccc(C)cc1C (centres undefined)
GI50 [2]: > 100 µM (inactive) | GI50 [3]: > 100 µM (inactive) | GI50 [4]: > 100 µM (inactive) | GI50 [5]: > 100 µM (inactive) | GI50 [6]: > 100 µM (inactive) | GI50 [7]: > 100 µM (inactive) | GI50 [8]: > 100 µM (inactive)

Cc1ccc2ccc(O)cc2c1
GI50 [1]: 35.3 µM (inactive)

CN(C)c1ccc(C(=NNC(=O)c2cc3ccccc3[nH]2)c2ccc(N(C)C)cc2)cc1
GI50 [1]: > 23.8 µM (inactive)

COC(=O)c1c(O)ccc2c1c1c(n2Cc2ccccc2OC)C(=O)c2ccccc2C1=O
GI50 [1]: 2.36 µM (inactive)

O=c1[nH]c2cc3cccnc3c(Cl)c2nc1CBr
GI50 [1]: 5.89 µM (inactive)

CCCNC(=S)NNC(=O)CSc1nc(-c2ccccc2)c(-c2ccccc2)[nH]1
GI50 [2]: 45 µM (inactive) | GI50 [4]: > 100 µM (inactive) | GI50 [5]: 70.3 µM (inactive) | GI50 [6]: > 100 µM (inactive) | GI50 [7]: 27.9 µM (inactive) | GI50 [8]: 84.1 µM (inactive)

CC1CC[P+](c2ccccc2)(c2ccccc2)CC1
GI50 [2]: 27.6 µM (inactive) | GI50 [3]: > 100 µM (inactive) | GI50 [4]: 50.1 µM (inactive) | GI50 [5]: > 100 µM (inactive) | GI50 [6]: > 100 µM (inactive) | GI50 [7]: 31.7 µM (inactive) | GI50 [8]: 89.1 µM (inactive)

CC(C)(C)/N=N/C(C)(C)N=C=O
GI50 [2]: > 100 µM (inactive) | GI50 [3]: > 100 µM (inactive) | GI50 [4]: > 100 µM (inactive) | GI50 [5]: > 100 µM (inactive) | GI50 [6]: > 100 µM (inactive) | GI50 [7]: > 100 µM (inactive) | GI50 [8]: > 100 µM (inactive)

COc1cc(CNc2nc3ccccc3nc2C(=O)O)cc(OC)c1OC
GI50 [1]: > 100 µM (inactive)

Cn1c(-c2ccc(/N=N/Nc3ccc(-c4n[nH]c(=S)n4C)cc3)cc2)n[nH]c1=S
GI50 [1]: 1.94 µM (inactive)

COc1ccc2c(c1)C(O)(C(F)(F)F)c1cc(C(=O)C(F)(F)F)c3ccccc3c1N2 (centres undefined)
GI50 [2]: 14.8 µM (inactive) | GI50 [3]: 17.4 µM (inactive) | GI50 [4]: 10 µM (inactive) | GI50 [5]: 10.2 µM (inactive) | GI50 [7]: 10.3 µM (inactive) | GI50 [8]: 3.71 µM (inactive) | GI50 [9]: 13.5 µM (inactive)

O=C(Cn1c2ccc(Br)cc2c2nc3ccccc3nc21)NC1CCCCC1
GI50 [1]: 60.4 µM (inactive)

Clc1nc(NCCc2ccccc2)c2ncn(-c3ccccc3)c2n1
GI50 [1]: 23.4 µM (inactive)

COc1ccc(NC(=O)CC(=O)n2nc(C)c(/N=N/c3cccc(C)c3)c2C)cc1
GI50 [1]: > 100 µM (inactive)

COc1cc2c(oc(=O)c3c4oc([Si](C)(C)C)cc4cc(OC)c23)c2cccc(O)c12
GI50 [2]: > 100 µM (inactive) | GI50 [3]: > 100 µM (inactive) | GI50 [4]: > 100 µM (inactive) | GI50 [5]: > 100 µM (inactive) | GI50 [7]: > 100 µM (inactive) | GI50 [8]: > 100 µM (inactive)

C=C(C)CCN(C(=O)OC(C)(C)C)c1cc(C(C)C)co1
GI50 [1]: 24.8 µM (inactive)

N#Cc1nc(CN2C(=O)c3ccccc3C2=O)oc1N
GI50 [1]: > 100 µM (inactive)

N#CCCN(CCC#N)c1ccc(/C=C2\SC(=S)NC2=O)cc1Br
GI50 [1]: > 100 µM (inactive)

COC(=O)C1([C@@H]2C[C@@H](O)[C@]3(C)CC/C=C(\C)CCC[C@H](C)[C@H](O)[C@@H]2O3)CC1
GI50 [1]: 46.6 µM (inactive)

O=c1[nH]nc(Cc2ccccc2)n1/N=C/c1cccs1
GI50 [1]: > 100 µM (inactive)

Clc1cc(-c2ccccc2)nc2ccccc12
GI50 [1]: 31.3 µM (inactive)

NS(=O)(=O)c1nnc(NS(=O)(=O)c2ccccc2C(=O)O)s1
GI50 [1]: > 100 µM (inactive)

O=[N+]([O-])c1ccc(N/N=C/c2ccc(OCCCCCCCCCCCO)cc2)c([N+](=O)[O-])c1
GI50 [1]: 5.22 µM (inactive)

CC(NNC(=O)c1ccc[n+]([BH2-]C#N)c1)c1ccccc1 (centres undefined)
GI50 [1]: > 100 µM (inactive)

CC(C)CC12CC3CCC(CNC1=O)C32C (centres undefined)
GI50 [2]: > 100 µM (inactive) | GI50 [3]: > 100 µM (inactive) | GI50 [4]: 78 µM (inactive) | GI50 [5]: > 100 µM (inactive) | GI50 [6]: > 100 µM (inactive) | GI50 [7]: > 100 µM (inactive)

COc1cc2c(cc1C)NC(=O)/C2=C/c1c(Cl)[nH]c2ccccc12
GI50 [1]: 5.61 µM (inactive)

O=Cc1cc2c(o1)C(=O)c1ccccc1C2=O
GI50 [1]: 1.72 µM (inactive)

O=C1Cc2c([nH]c3ccc(C(=O)O)cc23)-c2ccccc2N1
GI50 [1]: > 100 µM (inactive)
